This passage reports target mRNA inhibition results from the OligoGym collection.

The data set addresses ANGPTL2. The following applies: ASO.

After the bases stand the sugars from the 5' end (letter, count) and the backbone: PS all phosphorothioate, else s phosphorothioate and o phosphodiester by linkage. Methylation of C is not given here. l = locked nucleic acid (LNA); d = 2'-deoxy (DNA)

On to “CAGCTCATTGTTGAGCAG (sugars l2 d14 l2, PS)”, for which the target mRNA inhibition (5 µM) is -19% and the target mRNA inhibition (25 µM) stood at 7.91%.

Turning to CTCCGGTAATGGCCCC (sugars l1 d12 l3, PS), the target mRNA inhibition runs as follows: (5 µM) 28.6%; (25 µM) 25.4%.

Regarding “ATCTGGTTGATGATGCGG (sugars l2 d14 l2, PS)”, the target mRNA inhibition (5 µM) stood at 75.2% and the target mRNA inhibition (25 µM) amounted to 82.3%.

Consider “ATTTACTGTCTGCCCAG (sugars l2 d12 l3, PS)”, for which the target mRNA inhibition (5 µM) is 54.6% and the target mRNA inhibition (25 µM) was found to be 59.5%.

As for “ACTGGTGAGGAGTTGTT (sugars l2 d13 l2, PS)”, the target mRNA inhibition runs as follows: (5 µM) 26%; (25 µM) 25.8%.

Turning to “ATGATGCGGTTGTAGGT (sugars l2 d13 l2, PS)”, the target mRNA inhibition (5 µM) came out at 57.5%.

“ATGAAGTCAGTCAGAGCCT (sugars l1 d16 l2, PS)”: the target mRNA inhibition runs as follows: (5 µM) 27.6%; (25 µM) 22.6%.

Take “AGTGTTTAAGAAGAAATG (sugars l4 d10 l4, PS)”: the target mRNA inhibition amounted to 41.7% (5 µM) and 54.8% (25 µM).

Consider “AATTACTCCACACTTTCA (sugars l3 d12 l3, PS)”, for which the target mRNA inhibition is, setting by setting: (5 µM) 55.7%; (25 µM) 61.6%.

“TTATAAACTCCTTGCTCTA (sugars l1 d14 l4, PS)”: the target mRNA inhibition (5 µM) amounted to 33.2% and the target mRNA inhibition (25 µM) amounted to 42.4%.

As to CTTAATGGGCAGTAATA (sugars l4 d9 l4, PS), the target mRNA inhibition reads like this: (5 µM) 32.6%; (25 µM) 42.3%.

With “TGGTTGATGATGCGGTTGTA (sugars l1 d17 l2, PS)”, the target mRNA inhibition is, setting by setting: (5 µM) 48%; (25 µM) 53%.

Turning to CCAAGGGCACGTTTTA (sugars l2 d12 l2, PS), the target mRNA inhibition (5 µM) is -4% and the target mRNA inhibition (25 µM) is 13.2%.

As to “TTGACAGGGATTAGGCA (sugars l1 d13 l3, PS)”, the target mRNA inhibition by setting is: (5 µM) 11.6%; (25 µM) 23.9%.

“ATCTTATTTTGTTTAACA (sugars l4 d10 l4, PS)”: the target mRNA inhibition is 60.2% (5 µM) and 51.7% (25 µM).

Regarding ACAACTCACATTCATAG (sugars l4 d9 l4, PS), the target mRNA inhibition runs as follows: (5 µM) 49%; (25 µM) 54.7%.

“ATTTTGAGATTCCCCCAA (sugars l1 d14 l3, PS)”: the target mRNA inhibition runs as follows: (5 µM) 3.44%; (25 µM) 20.9%.

In the case of “TTTTGAGATTCCCCCAAA (sugars l1 d13 l4, PS)”, the target mRNA inhibition (5 µM) amounted to 24.8% and the target mRNA inhibition (25 µM) stood at 24.7%.

Take “CAGGCGTCTCTGGATGA (sugars l1 d14 l2, PS)”: the target mRNA inhibition worked out at 17.4% (5 µM) and 10.6% (25 µM).

For the sequence ATAGCAGGGAGTGACC (sugars l2 d12 l2, PS), the target mRNA inhibition (5 µM) stood at 8.4% and the target mRNA inhibition (25 µM) is 26.5%.

As to “CAGAACAATGGGGAGGA (sugars l3 d12 l2, PS)”, the target mRNA inhibition reads like this: (5 µM) 58.5%; (25 µM) 51.1%.

Take “AGTTACTCTTAGCCAAA (sugars l3 d10 l4, PS)”: the target mRNA inhibition (5 µM) came out at 82.6% and the target mRNA inhibition (25 µM) worked out at 84.8%.

Regarding GAGTTCATGTTGCGGC (sugars l1 d13 l2, PS), the target mRNA inhibition was 21.4% (5 µM) and 24.9% (25 µM).

For “AACCATTTTGAGATTCCCC (sugars l1 d16 l2, PS)”, the target mRNA inhibition reads like this: (5 µM) 28.5%; (25 µM) 17.6%.

As to “CATTTTGAGATTCCCCC (sugars l1 d14 l2, PS)”, the target mRNA inhibition amounted to 27.1% (5 µM) and 14% (25 µM).

Turning to “GAACCTCAATATCCTGC (sugars l1 d13 l3, PS)”, the target mRNA inhibition worked out at 62.6% (5 µM) and 72.6% (25 µM).

With “AGATGAATATAGTTCTC (sugars l4 d10 l3, PS)”, the target mRNA inhibition reads like this: (5 µM) 55.3%; (25 µM) 65.9%.

Turning to “AGTGAGAGGAAGTCAGGG (sugars l1 d15 l2, PS)”, the target mRNA inhibition by setting is: (5 µM) 39.6%; (25 µM) 46.3%.

On to “GAACTCAGCCCAGTAGA (sugars l1 d14 l2, PS)”, for which the target mRNA inhibition is, setting by setting: (5 µM) 1.82%; (25 µM) 15.7%.

As to “AAGTTGATAGTTTATCTCCT (sugars l2 d16 l2, PS)”, the target mRNA inhibition by setting is: (5 µM) 60.9%; (25 µM) 72%.

“GCAGCTCATTGTTGAGC (sugars l1 d14 l2, PS)”: for the setting “5 µM”, the target mRNA inhibition was 8.7%.

“GTATTGTGAGGAGTTTC (sugars l4 d11 l2, PS)”: the target mRNA inhibition is 80% (5 µM) and 84.3% (25 µM).

On to “AACCCCAGAGGATATGT (sugars l1 d13 l3, PS)”, for which the target mRNA inhibition reads like this: (5 µM) 49.3%; (25 µM) 58.9%.

As for “GCTCATTGTTGAGCAGC (sugars l1 d14 l2, PS)”, the target mRNA inhibition (5 µM) was -2.2% and the target mRNA inhibition (25 µM) was determined as 3.15%.
